Laboratory results as given in patent US8003783B2, “17B-hydroxysteroid dehydrogenase inhibitors” (Sterix Limited, priority 2004, dated 2011).
Several values for one entry are separate records, joined by “and”; a condition that tells them apart may be missing. Equal entries are not always repeated. Where two headings read alike, the source gives them in different places.

Experiments:
[1] = target: T1, 17β-HSD1 (Homo sapiens, UniProt P14061); assay: 17β-HSD Type I activity in T-47D cells (E1→E2); format: cell-based; details: for inhibition at 10 µM: T47D
T1 construct: was measured in intact cell monolayers of T47D and MDA-MB-231 breast cancer cells respectively; endogenous in cells; host or cells: T-47D human breast cancer cells
T1 sequence (P14061 1-328): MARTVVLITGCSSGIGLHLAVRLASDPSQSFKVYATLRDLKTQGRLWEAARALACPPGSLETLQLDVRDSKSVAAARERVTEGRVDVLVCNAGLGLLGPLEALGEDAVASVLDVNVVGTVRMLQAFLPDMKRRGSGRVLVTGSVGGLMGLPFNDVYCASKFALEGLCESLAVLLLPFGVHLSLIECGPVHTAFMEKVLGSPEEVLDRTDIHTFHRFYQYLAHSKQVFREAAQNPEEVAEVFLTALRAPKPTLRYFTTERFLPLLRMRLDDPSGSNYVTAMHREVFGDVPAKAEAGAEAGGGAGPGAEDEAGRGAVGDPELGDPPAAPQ

[2] = target: T2, 17β-HSD2 (Homo sapiens, UniProt P37059); assay: 17β-HSD Type II activity in MDA-MB-231 cells (E2→E1); format: cell-based
T2 construct: was measured in intact cell monolayers of T47D and MDA-MB-231 breast cancer cells respectively; endogenous in cells; host or cells: MDA-MB-231 human breast cancer cells
T2 sequence (P37059 1-387): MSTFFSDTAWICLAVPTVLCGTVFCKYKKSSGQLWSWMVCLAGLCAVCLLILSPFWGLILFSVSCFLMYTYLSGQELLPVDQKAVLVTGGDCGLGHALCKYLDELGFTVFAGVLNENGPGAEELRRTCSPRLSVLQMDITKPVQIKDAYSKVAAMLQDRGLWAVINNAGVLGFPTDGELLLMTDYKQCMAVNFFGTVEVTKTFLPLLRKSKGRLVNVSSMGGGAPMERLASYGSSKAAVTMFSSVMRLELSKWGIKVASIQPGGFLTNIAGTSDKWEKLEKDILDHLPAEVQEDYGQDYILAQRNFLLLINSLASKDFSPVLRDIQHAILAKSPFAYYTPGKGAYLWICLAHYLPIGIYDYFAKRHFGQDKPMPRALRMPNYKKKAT

[3] = 10 μM, T-47D cells, E1→E2, read-out: % inhibition of 17β-HSD1 @ 10 μM
[4] = 10 μM, MDA-MB-231 cells, E2→E1, read-out: % inhibition of 17β-HSD2 @ 10 μM
[5] = T-47D cells, E1→E2, read-out: IC50 (17β-HSD1)
[6] = read-out: % inhibition of 17β-HSD1 @ 10 μM, 10 μM, T-47D cells, E1→E2
[7] = MDA-MB-231, read-out: % inhibition of 17β-HSD2 @ 10 μM

Row | Structure (SMILES) | inhibition at 10 µM [1, 3] [%] | inhibition at 10 µM [2, 4] [%] | also measured
1 | CCC(O)C1CC2C3CCc4cc(O)ccc4C3CC[C@]2(C)C1=O (stereo partly drawn) [compound 665] | 80 | -18 | –
2 | C[C@]12CCC3c4ccc(O)cc4CCC3C1C/C(=C\c1ccccn1)[C@@H]2O (stereo partly drawn) [compound 322] | 55 | 17 | –
3 | C[C@]12CCC3c4ccc(O)cc4CCC3C1C/C(=C\c1cccs1)C2=O (stereo partly drawn) [compound 475] | 67 | 14 | –
4 | CCOCC1CC2C3CCc4cc(O)ccc4C3CC[C@]2(C)C1=O (stereo partly drawn) [compound 664] | 92 | 19 | IC50 [1]: 320 nM
5 | C[C@]12CCC3c4ccc(O)cc4CCC3C1C/C(=C\c1cccs1)[C@@H]2O (stereo partly drawn) [compound 507] | 41 | 25 | –
6 | C[C@]12CCC3c4ccc(O)cc4CCC3C1CC(C(=O)NCc1ccncc1)[C@@H]2O (stereo partly drawn) [compound 845] | 87 | 2.5 | –
7 | C[C@]12CCC3c4ccc(O)cc4CCC3C1Cc1c2n[nH]c1O (stereo partly drawn) [compound 820, 6a-Methyl-4b,5,6,6a,8,10,10a,10b,11,12-decahydro-7,8-diaza-pentaleno[2,1-a]phenanthrene-2,9-diol] | 86 | 7 | –
8 | C[C@]12CCC3c4ccc(O)cc4CCC3C1CC(CO)[C@@H]2O (stereo partly drawn) [compound 612] | 86 | 17 | –
9 | C[C@]12CCC3c4ccc(O)cc4CCC3C1C/C(=N/O)C2=O (stereo partly drawn) [compound 327] | 96 | 5 | % inhibition of 17β-HSD1 @ 10 μM ([1]; 10 μM, T-47D cells, E1→E2): 94%; IC50 [1, 5]: 1100 nM
10 | CC(C)NC(=O)CC1CC2C3CCc4cc(O)ccc4C3CC[C@]2(C)[C@H]1O (stereo partly drawn) [compound 773] | 67 | 11 | –
11 | CCNC(=O)CC1CC2C3CCc4cc(O)ccc4C3CC[C@]2(C)[C@H]1O (stereo partly drawn) [compound 774] | 76 | 13 | –
12 | CCN(CC)C(=O)CC1CC2C3CCc4cc(O)ccc4C3CC[C@]2(C)[C@H]1O (stereo partly drawn) [compound 772] | 79 | 14 | –
13 | CCOC(=O)/C(O)=C1\CC2C3CCc4cc(O)ccc4C3CC[C@]2(C)C1=O (stereo partly drawn) [compound 330] | 72 | 7 | % inhibition of 17β-HSD1 @ 10 μM ([1]; 10 μM, T-47D cells, E1→E2): 77%
14 | C[C@]12CCC3c4ccc(O)cc4CCC3C1Cc1c2n[nH]c1C(=O)NCc1ccccn1 (stereo partly drawn) [compound 915] | – | – | inhibition at 10 µM [1, 6]: 93%; IC50 [1, 5]: 880 nM; inhibition at 10 µM [2, 7]: 9%
15 | CC(C)NC(=O)CC1CC2C3CCc4cc(O)ccc4C3CC[C@]2(C)C1=O (stereo partly drawn) [compound 743] | 75 | 6 | –
16 | CC1(C#N)CC2C3CCc4cc(O)ccc4C3CC[C@]2(C)C1=O (stereo partly drawn) [compound 924] | 85 | 12 | –
17 | Cn1cc2c(n1)[C@@]1(C)CCC3c4ccc(O)cc4CCC3C1C2 (stereo partly drawn) [compound 785] | – | – | inhibition at 10 µM [1, 6]: 94%; IC50 [1, 5]: 2750 nM; inhibition at 10 µM [2, 7]: 24%
18 | C[C@]12CCC3c4ccc(O)cc4C(=O)CC3C1Cc1c[nH]nc12 (stereo partly drawn) [compound 737, 2-Hydroxy-6a-methyl-5,6,6a,8,10,10a,10b,11-octahydro-4bH-7,8-diazo-pentaleno[2,1-a]phenanthren-12-one] | 96 | -9 | IC50 [1, 5]: 460 nM
19 | CNC(=O)c1[nH]nc2c1CC1C3CCc4cc(O)ccc4C3CC[C@]21C (stereo partly drawn) [compound 893] | – | – | inhibition at 10 µM [1, 6]: 62%; inhibition at 10 µM [2, 7]: 14%

Row | Structure (SMILES) | inhibition at 10 µM [1, 3] [%] | inhibition at 10 µM [2, 4] [%] | also measured
20 | C[C@]12CCC3c4ccc(O)cc4CCC3C1Cc1c2n[nH]c1C(=O)NCc1cccnc1 (stereo partly drawn) [compound 860, 2-Hydroxy-6a-methyl-4b,5,6,6a,8,10,10a,10b,11,12-decahydro-7,8-diaza-pentaleno[2,1-a]phenanthrene-9-carboxylic acid (pyridin-3-ylmethyl)-amide] | 92 | 28 | IC50 [1, 5]: 780 nM
21 | C[C@]12CCC3c4ccc(O)cc4CCC3C1CC(C#N)[C@@H]2O (stereo partly drawn) [compound 561] | 56 | 4 | –
22 | C[C@]12CCC3c4ccc(O)cc4CCC3C1C/C(=C\c1ccccn1)C2=O (stereo partly drawn) [compound 319] | 23 | 16 | –
23 | Cn1ncc2c1[C@@]1(C)CCC3c4ccc(O)cc4CCC3C1C2 (stereo partly drawn) [compound 786] | – | – | inhibition at 10 µM [1, 6]: 43%; inhibition at 10 µM [2, 7]: 32%
24 | C[C@]12CCC3c4ccc(O)cc4CCC3C1CC(C(=O)O)[C@@H]2O (stereo partly drawn) [compound 611] | 39 | 4 | –
25 | CC(C)NC(=O)c1[nH]nc2c1CC1C3CCc4cc(O)ccc4C3CC[C@]21C (stereo partly drawn) [compound 857, 2-Hydroxy-6a-methyl-4b,5,6,6a,8,10,10a,10b,11,12-decahydro-7,8-diaza-pentaleno[2,1-a]phenanthrene-9-carboxylic acid isopropyl amide] | 57 | 0.3 | –
26 | CC(C)/C=C1\CC2C3CCc4cc(O)ccc4C3CC[C@]2(C)[C@H]1O (stereo partly drawn) [compound 614] | 68 | 7 | –
27 | CC(C)/C=C1\CC2C3CCc4cc(O)ccc4C3CC[C@]2(C)C1=O (stereo partly drawn) [compound 571] | 71 | 18 | –
28 | C[C@]12CCC3c4ccc(O)cc4CCC3C1Cc1c2n[nH]c1C(=O)O (stereo partly drawn) [compound 783] | 32 | -6 | –
29 | COc1cc(/C=C2\CC3C4CCc5cc(O)ccc5C4CC[C@]3(C)[C@H]2O)cc(OC)c1OC (stereo partly drawn) [compound 329] | – | 3 | % inhibition of 17β-HSD1 @ 10 μM ([1]; 10 μM, T-47D cells, E1→E2): 63% and 33%
30 | C[C@]12CCC3c4ccc(OS(N)(=O)=O)cc4CCC3C1C/C(=N/O)C2=O (stereo partly drawn) [compound 337] | 47 | 8 | –
31 | C[C@]12CCC3c4ccc(O)cc4CCC3C1CC1C(C(F)(F)F)=NNC12O (stereo partly drawn) [compound 947] | 83 | 2 | –
32 | CCN(CC)C(=O)CC1CC2C3CCc4cc(O)ccc4C3CC[C@]2(C)C1=O (stereo partly drawn) [compound 742] | 82 | 2 | –
33 | CC(C)Cn1cc2c(n1)[C@@]1(C)CCC3c4ccc(O)cc4CCC3C1C2 (stereo partly drawn) [compound 812] | – | – | inhibition at 10 µM [1, 6]: 77%; inhibition at 10 µM [2, 7]: 61%
34 | C[C@]12CCC3c4ccc(OS(N)(=O)=O)cc4CCC3C1C/C(=C\c1ccncc1)C2=O (stereo partly drawn) [compound 452] | 28 | 11 | –
35 | C[C@]12CCC3c4ccc(O)cc4CCC3C1C/C(=C\c1cccnc1)C2=O (stereo partly drawn) [compound 320] | 44 | 10 | –
36 | C[C@]12CCC3c4ccc(O)cc4CCC3C1C/C(=C\c1ccncc1)[C@@H]2O (stereo partly drawn) [compound 324] | 81 | 3 | IC50 [1]: 4100 nM; % inhibition of 17β-HSD1 @ 10 μM ([1]; 10 μM, T-47D cells, E1→E2): 72%
37 | C[C@]12CCC3C4CC=C(O)C=C4CCC3C1CC(CC(=O)O)C2=O (stereo partly drawn) [compound 604] | 13 | -5 | –
38 | CN(C)c1ccc(/C=C2\CC3C4CCc5cc(O)ccc5C4CC[C@]3(C)[C@H]2O)cc1 (stereo in doubt) [compound 511, 16-(4-Dimethylamino-benzylidene)-13-methyl-7,8,9,11,12,13,14,15,16,17-decahydro-6H-cyclopenta[a]phenanthrene-3,17-diol] | 72 | 81 | IC50 ([2]; MDA-MB-231 cells, E2→E1): 5400 nM
